US9066516B2, “Uses of thaxtomin and thaxtomin compositions as herbicides” (priority 2008, dated 2015)

Columns and labels:
Assay type in all cases: in vivo
barnyard grass [1] = test: Greenhouse spray test bialaphos + MBI-005 (Example 10)
Protocol: The MBI-005 and bialaphos were prepared at various concentrations either as single ingredients or in combination with bialaphos. The treatments were applied at approximately ⅔ ml per replicate with a hand-help spray nozzle to barnyard grass or sedge. There were 3 replicates per treatment which were randomized after spray and were kept in a greenhouse at 25° C. for evaluation of phytotoxicity (% control).

crabgrass [2] = test: Crabgrass seed germination, MBI-005 + m-Tyrosine (Example 15); conditions: MBI-005 at 0.0035 mg/mL, 7 DAT
Protocol: Forty-five seeds were placed on a ring of blotter paper inside a 3 cm petri dish, covered with 10 cm^3 of inert baked clay particle media and supplied with 7 ml of 0.035 mg/ml MBI-005, a m-Tyrosine concentration, or a combination of MBI-005 and m-Tyrosine (Table 14). Water was used as a negative control. Petri dishes were randomly placed in a growth room at 25° C. and 50% RH. Treatments were replicated three times and germinated seeds were counted 7 days after application; water was added as necessary to maintain moisture levels inside each petri dish.
Synergy was calculated as the ratio of observed (E) to expected (E/Ee) reduction in germination using Colby's formula.

crabgrass [3] = test: Post-emergent MBI-005 + Chelated Fe on crabgrass (Example 16); conditions: 15 DAT
Protocol: Ten seedlings in 2.5 cm square pots containing plant growth mix were sprayed with two suboptimal rates of MBI-005, 14.49 mg/mL of Chelated Fe, or a combination thereof, at a volume of 40 gal/A using a cabinet track sprayer. Negative controls were sprayed with water. Pots were randomly placed in a growth room at 25° C. and 50% RH, and watered as necessary. Treatments were replicated five times and evaluated at 7 and 15 days for visual % damage, with 0% indicating no damage and 100% indicating plant death.
(§1) Synergy was calculated as the ratio of observed (E) to expected (E/Ee) percent control using Colby's formula.

grass species = test: Greenhouse test on grass species (Example 4); conditions: 0.5 or 1.0 mg/mL thaxtomin A
Protocol: (§2) A strain of S. acidiscabies (ATCC-49003) is grown in oat bran broth for 5 days (25° C., 200 rpm). The whole cell broth with thaxtomin A is extracted using XAD resin. The dried crude extract was resuspended in 4% ethanol and 0.02% non-ionic surfactant at a concentration of 10 mg/mL, and the solutions with two different concentrations of thaxtomin A (0.5 and 1.0 mg/mL) are tested the following broadleaf weed species:
and on the following grass weed species:
(§3) All plant species are tested in 4″×4″ plastic pots in three replicates. The untreated control plants are sprayed with the carrier solution (4% Ethanol, 0.02% glycosperse) and the positive control plants with Roundup at a rate corresponding to 1 fl. oz/acre. Treated plants are kept in a greenhouse under 12 h light/12 h dark conditions.

[4] = tested on: Nightshade, Black—Solanum nigrum; test: Greenhouse weed control by S. acidiscabies extract (Example 4); conditions: 0.5 mg/mL
Protocol: as §2, §3

sedge = test: Greenhouse synergy test MBI-005 + commercial herbicides (Example 11); conditions: 14 days
Protocol: (§4) The test species barnyard grass, ragweed, sedge, and broad-leaf mustard were used for the valuation of synergy between MBI-005 and the rice herbicides clomazone, penoxsulam, cyhalofop, fenoxaprop-p-ethyl, bispyribac-sodium, thiobencarb, and propanil.
(§5) There were 3 replicates per treatment which were sprayed with approximately ⅔ ml per replicate. The treatments were completely randomized and kept in a greenhouse at 25° C. The efficacy was rated at 7 and 14 days post treatment.

broad-leaf mustard = test: as above; conditions: 14 days
Protocol: as §4, §5

barnyard grass [5] = test: as above; conditions: 14 days
Protocol: as §4, §5

[6] = tested on: annual broadleaves, sedges and grasses; test: Post-emergence spectrum of MBI-005, overall (Example 13); conditions: unless surfactants are added
Protocol: To further describe the spectrum of post-emergence activity, tests were conducted in laboratory and field conditions. For laboratory testing, 3-10 plants (depending on the species) at the 1-2 leaf stage plants in 2.5 cm square pots containing Sunshine Mix No. 2 planting media were sprayed at 1 mg MBI-005/mL at a rate of 40 gal/A using a cabinet track sprayer. Negative controls were sprayed with water and positive controls with glufosinate. Pots were randomly placed in a growth room at 25° C. and 50% RH, and watered as necessary. Treatments were replicated five times and evaluated at 7 and 14 days for visual % damage, with 0% indicating no damage and 100% indicating plant death.
In field testing, field soil containing weeds at the 1-5 leaf stage were treated with 38.2 L MBI-005/ha at a spray volume of 374 L/ha. Treatments, including water as the negative control and WeedBGon or Preen Broadleaf as the positive control, were replicated four times and applied twice at a four week interval. The positive control on Late watergrass, Ricefield Bulrush, Smallflower sedge and Arrowhead was an herbicide containing as active ingredient 2,4-D and an organosilicone surfactant was added to MBI-005. Treatments were assessed for % control and % ground cover.
Post-emergent control of perennials was generally limited except for Oxalis pes-caprae.

[7] = tested on: Smallflower umbrella sedge; test: Post-emergent MBI-005 + Thiobencarb on Smallflower umbrella sedge (Example 21); conditions: 14 days
Protocol: […] Negative controls were sprayed with water. Pots were randomly placed in a growth room at 25° C. and 50% RH, and watered as necessary. Treatments were replicated three times and evaluated at 7 and 14 days for visual % damage, with 0% indicating no damage and 100% indicating plant death.
as §1

[8] = tested on: small-flower umbrella sedge; test: Field study, 1-sq foot plots (Example 5); conditions: 14 days after treatment
Protocol: (§6) The combined effect of thaxtomin A and two commercial herbicides (Bipyribac-sodium formulated as Regiment and Lemongrass oil formulated as GreenMatch EX) on small-flower umbrella sedge and watergrass is tested in a field study using small (1-sq foot) plots. All single product treatments and tank mix combinations were sprayed at 57 gal per acre. Means in each column marked with the same letter in Table 2 are not statistically different from each other at p<0.05

watergrass = test: Field study, 1-sq foot plots (Example 5); conditions: 14 days after treatment
Protocol: as §6

With `CN1C(=O)[C@](O)(Cc2cccc(O)c2)N(C)C(=O)[C@@H]1Cc1c[nH]c2cccc([N+](=O)[O-])c12` [thaxtomin A] the “% Control (14 days)” value (barnyard grass [1]; Table 6, MBI-005 0.25 mg/L) was 1.3 ab %, the “% Control (14 days)” value (barnyard grass [1]; Table 7, MBI-005 0.25 mg/mL) was 6.7 bc % and the “% Control (7 days)” value (barnyard grass [1]; Table 8, MBI-005 0.38 mg/mL) was 6.7 ab %. For the same molecule, the “% Control (14 days)” value (barnyard grass [1]; Table 8, MBI-005 0.38 mg/mL) was 21.7 b %, the “E (% controlled compared to UTC)” value (crabgrass [2]) was 14.3% and the “AVG No. germinated” value (crabgrass [2]; forty-five seeds) was 38.0. For the same molecule, the “AVG E (visual % damage)” value (crabgrass [3]; 12.5% MBI-005 (0.125 mg/mL)) was 1.3%, the “AVG E (visual % damage)” value (crabgrass [3]; 25% MBI-005 (0.25 mg/mL)) was 1.3% and the “adverse effects on grass species” value (grass species) was “no adverse effects are observed”. For the same molecule, the stunting [4] was “severe stunting”, the “% Control MBI-005” value (sedge; MBI-005 0.01 mg/mL (cyhalofop line)) was 20.0% and the “% Control MBI-005” value (sedge; MBI-005 0.01 mg/mL (penoxsulam line)) was 20.0%. For the same molecule, the “% Control MBI-005” value (sedge; MBI-005 0.02 mg/mL (fenoxaprop-p-ethyl line)) was 70.8%, the “% Control MBI-005” value (sedge; MBI-005 0.02 mg/mL (thiobencarb line)) was 37.5% and the “% Control MBI-005” value (broad-leaf mustard; MBI-005 0.125 mg/mL (cyhalofop line)) was 13.3%. For the same molecule, the “% Control MBI-005” value (broad-leaf mustard; MBI-005 0.125 mg/mL (fenoxaprop-p-ethyl line)) was 45.8%, the “% Control MBI-005” value (broad-leaf mustard; MBI-005 0.125 mg/mL (thiobencarb line)) was 54.2% and the “% Control MBI-005” value (broad-leaf mustard; MBI-005 0.25 mg/mL (bispyribac-sodium line)) was 37.5%. For the same molecule, the “% Control MBI-005” value (broad-leaf mustard; MBI-005 0.25 mg/mL (propanil line)) was 58.3%, the “% Control MBI-005” value (barnyard grass [5]; MBI-005 0.125 mg/mL (bispyribac-sodium line)) was 3.3% and the “% Control MBI-005” value (barnyard grass [5]; MBI-005 0.125 mg/mL (penoxsulam line)) was 17.5%. For the same molecule, the “% Control MBI-005” value (barnyard grass [5]; MBI-005 0.125 mg/mL (propanil line)) was 10.0%, the “% Control MBI-005” value (barnyard grass [5]; MBI-005 0.25 mg/mL (fenoxaprop-p-ethyl line)) was 66.7% and the “% Control MBI-005” value (barnyard grass [5]; MBI-005 0.25 mg/mL (thiobencarb line)) was 41.7%. The post-emergent activity [6] was “limited post-emergent activity”, the “Observed Average % Efficacy (E)” value ([7]; first series, 2% MBI-005) was 20. % and the “Observed Average % Efficacy (E)” value ([7]; first series, .5% MBI-005) was 3.3%. The “Observed Average % Efficacy (E)” value ([7]; second series, 1% MBI-005) was 10.0%, the “Observed Average % Efficacy (E)” value ([7]; second series, 2% MBI-005) was 79.2% and the “Sedge control (%)” value ([8]; Thaxtomin 0.25 mg/mL) was 95a %. The “Sedge control (%)” value ([8]; Thaxtomin 0.5 mg/mL) was 100a %, the “Watergrass control (%)” value (watergrass; Thaxtomin 0.25 mg/mL) was 5d % and the “Watergrass control (%)” value (watergrass; Thaxtomin 0.5 mg/mL) was 5d %.
